The source of these data is US6863895B2, “Mycobacterial sulfation pathway proteins and methods of use thereof” (priority 2001, dated 2005).

Test [1] concerns E. coli CysC (JM81A complemented with M. tuberculosis CysC). The test is described as follows: microbe, parasite or virus in culture. It counts as cell-based. Particulars: Escherichia coli, read-out: percent inhibition of growth.
Test [2] concerns E. coli CysH (JM81A complemented with M. smegmatis CysH). The test can be described thus: microbe, parasite or virus in culture. It counts as cell-based. The conditions noted are these: Escherichia coli; E. coli CysH strain; 25 μg/mL of compound; read-out: percent inhibition of growth.
For test [3], the system named is E. coli BioB (JM81A control strain containing the BioB gene). The test is described as follows: microbe, parasite or virus in culture. It counts as cell-based. The conditions noted are these: Escherichia coli, 25 μg/mL of compound, read-out: percent inhibition of growth.
For test [4], the target named is T1, M. tuberculosis CysC (APS kinase) (Mycobacterium tuberculosis, UniProt P9WNM5).
T1 construct: made in house; host or cells: E. coli BL21 STAR, plasmid pET28b(+)CysC
T1 sequence (P9WNM5 442-614 limits assumed): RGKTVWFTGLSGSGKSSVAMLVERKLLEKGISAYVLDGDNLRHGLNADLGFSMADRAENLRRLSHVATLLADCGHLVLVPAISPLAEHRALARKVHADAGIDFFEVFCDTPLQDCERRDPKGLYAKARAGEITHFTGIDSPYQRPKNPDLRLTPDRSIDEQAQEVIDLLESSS
It counts as biochemical.

Test [5] addresses APS kinase of E. coli (Escherichia coli, UniProt P0A6J1). The conditions noted are these: cited from earlier work.

APS kinase of E. coli, sequence (P0A6J1 whole entry): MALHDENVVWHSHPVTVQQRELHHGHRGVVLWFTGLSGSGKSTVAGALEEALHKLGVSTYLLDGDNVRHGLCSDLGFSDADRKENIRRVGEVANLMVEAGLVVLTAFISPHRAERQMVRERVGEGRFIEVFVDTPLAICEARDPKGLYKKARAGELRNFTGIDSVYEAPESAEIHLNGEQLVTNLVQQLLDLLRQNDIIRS

What is called inhibition is the change of the read-out against control, counted positive when it falls. As to `Nc1ccc(S(=O)(=O)Nc2cnc3ccccc3n2)cc1`, the inhibition at 25 µg/mL came out at 94% in test [1], 29% in test [2] and 77% in test [3].
Turning to `[N-]=[N+]=Nc1ccc(S(=O)(=O)Nc2ncccn2)cc1`, the inhibition at 25 µg/mL amounted to 95% in test [1], 0% in test [2] and 85% in test [3].
Consider `CCN(CC)CC[n+]1ccc2c(C)c3[nH]c4ccccc4c3c(C)c2c1`, for which the inhibition at 25 µg/mL turned out to be 98% in test [1], 97% in test [2] and 0% in test [3].
Take `CC(=N/Nc1nc2ccccc2s1)/N=N/c1cccc(O)c1`: the values for the inhibition at 25 µg/mL in test [1], in test [2] and in test [3] were 47%, 0% and 0%, respectively.
The term Km denotes the substrate concentration at which the rate is half of its maximum. `Nc1ncnc2c1ncn2[C@@H]1O[C@H](COP(=O)(O)OS(=O)(=O)O)[C@@H](O)[C@H]1O` [APS, adenylyl phosphosulfate]: in test [4], the VmaxE0 is 1.05 s⁻¹, the “VmaxE0 (two-fold decrease)” value worked out at 611 mM⁻¹ s⁻¹ and the “apparent VmaxE0” value is 0.85 ± 0.04 s⁻¹. The Km in test [5] is 0.25 µM.
On to `Nc1ncnc2c1ncn2[C@@H]1O[C@H](COP(=O)(O)OP(=O)(O)OP(=O)(O)O)[C@@H](O)[C@H]1O` [ATP], for which the “apparent VmaxE0” value in test [4] worked out at 0.95 ± 0.03 s⁻¹. Besides, in test [4] (read-out: apparent Km), the Km was found to be 910 ± 100 µM.
As to `O=C(O)c1ccccc1N[C@H](c1ccccc1)c1ccc2cccnc2c1O`, the inhibition at 25 µg/mL in test [1] was 93%; in test [2] it was 25%; in test [3], 1%.
With `O=C1Oc2ccccc2C(=O)/C1=C/Nc1ncc(-c2ccc(O)c(O)c2)s1`, the figures for the inhibition at 25 µg/mL in test [1], in test [2] and in test [3] were 78%, 90% and 0%, respectively.
